Results on 48 compounds are retold here after patent EP1763509B1, “ALPHA-HELICAL MIMETICS” (THE WALTER AND ELIZA HALL INSTITUTE OF MEDICAL RESEARCH, priority 2004, dated 2006).

Each structure is given as a SMILES string.

One may read the IC50 as the point on the concentration scale where inhibition reaches its midpoint.

For one experiment, the target named is T1, Bcl-xLΔ25 (Homo sapiens, UniProt Q07817).
T1 construct: GST tagged Bcl-xL ΔC25 protein
T1 sequence (Q07817 1-208 limits assumed, stated change not applied): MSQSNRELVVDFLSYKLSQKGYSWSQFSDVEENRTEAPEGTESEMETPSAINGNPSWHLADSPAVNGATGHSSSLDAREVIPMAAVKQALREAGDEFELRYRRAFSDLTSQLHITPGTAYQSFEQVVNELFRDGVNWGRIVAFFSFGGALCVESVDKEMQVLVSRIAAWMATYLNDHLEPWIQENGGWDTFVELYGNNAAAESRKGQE
Briefly: Alphascreen GST competition binding assay, benzoylurea compounds vs Biotinylated Bim BH3-26 peptide on GST tagged Bcl-xL ΔC25 protein. Conditions: GST tagged Bcl-xL ΔC25 protein 0.6 nM, Biotinylated Bim BH3-26 peptide 5.0 nM, 4 hours at room temperature; n.b. = not binding in the assay conditions.
Compound `CCC(C)N(C(=O)N[C@@H](CSCc1ccccc1)C(=O)O)C(=O)c1cccc(-c2ccccc2)c1` (mixture of isomers) [(4)] came in with an IC50 of 148 µM.
For the compound `CCCN(C(=O)N[C@@H](CSCc1ccccc1)C(=O)O)C(=O)c1cccc(-c2ccccc2)c1` [(1)], the IC50 came out at 70.1 µM.
As to `CCCCN(C(=O)N[C@@H](CSCc1ccccc1)C(=O)O)C(=O)c1cccc(-c2ccccc2)c1` [(2)], the IC50 turned out to be 56.8 µM.
Take `CC(C)CN(C(=O)N[C@@H](CSCc1ccccc1)C(=O)O)C(=O)c1cccc(-c2ccccc2)c1` [(3)]: the IC50 stood at 65.8 µM.
Compound `CC(C)N(C(=O)N[C@@H](CSCc1ccccc1)C(=O)O)C(=O)c1cccc(-c2ccccc2)c1` [(5)] registered an IC50 of 153 µM.
`O=C(O)[C@H](CSCc1ccccc1)NC(=O)N(C(=O)c1cccc(-c2ccccc2)c1)C1CCCCC1` [(6)] displayed an IC50 of 54.2 µM.
Turning to `O=C(O)[C@H](CSCc1ccccc1)NC(=O)N(CC1CCCCC1)C(=O)c1cccc(-c2ccccc2)c1` [(7)], the IC50 amounted to 45.2 µM.
Regarding `CCCN(C(=O)N[C@H](CC(=O)O)Cc1c[nH]c2ccccc12)C(=O)c1cccc(C#Cc2ccccc2)c1` [(116)], the IC50 worked out at 19 µM.
`CCCN(C(=O)N[C@@H](Cc1csc2ccccc12)C(=O)O)C(=O)c1cccc(C#Cc2ccccc2)c1` [(117)] came in with an IC50 of 35 µM.
Still for that read-out and setting: the same measure for `CCCN(C(=O)N[C@H](CC(=O)O)Cc1ccc2ccccc2c1)C(=O)c1cccc(C#Cc2ccccc2)c1` [(118)]: 34 µM; for `CCCN(C(=O)N[C@H](CC(=O)O)Cc1cccc2ccccc12)C(=O)c1cccc(C#Cc2ccccc2)c1` [(119)]: 67 µM.
The same measure, in the same setting: the same measure for `CCCN(C(=O)N[C@@H](CCc1ccccc1)CC(=O)O)C(=O)c1cccc(C#Cc2ccccc2)c1` [(120)]: 44 µM; for `CCCN(C(=O)N[C@@H](CCSC)CC(=O)O)C(=O)c1cccc(C#Cc2ccccc2)c1` [(121)]: 141 µM.
In the case of `CCCCSC[C@H](NC(=O)N(CCC)C(=O)c1cccc(C#Cc2ccccc2)c1)C(=O)O` [(122)], the IC50 was found to be 26 µM.
On the same count and under the same terms, for `CCCCCSC[C@H](NC(=O)N(CCC)C(=O)c1cccc(C#Cc2ccccc2)c1)C(=O)O` [(123)] the value was 30 µM; for `CCCN(C(=O)N[C@@H](CSCCC(C)C)C(=O)O)C(=O)c1cccc(C#Cc2ccccc2)c1` [(124)], 33 µM.
For the compound `CCCN(C(=O)N[C@@H](CSCC(CC)CC)C(=O)O)C(=O)c1cccc(C#Cc2ccccc2)c1` [(126)], the IC50 turned out to be 90 µM. This IC50 lies about 2.7-fold higher than the previous one.
`CCCN(C(=O)N[C@@H](CSCC1CCCCC1)C(=O)O)C(=O)c1cccc(C#Cc2ccccc2)c1` [(127)]: the IC50 turned out to be 40 µM.
`CCCN(C(=O)N[C@@H](CSCC1CC1)C(=O)O)C(=O)c1cccc(C#Cc2ccccc2)c1` [(128)] came in with an IC50 of 53 µM.
As for `CCCN(C(=O)N[C@@H](CSCC1CCC1)C(=O)O)C(=O)c1cccc(C#Cc2ccccc2)c1` [(129)], the IC50 was found to be 37 µM.
Still for that read-out and setting: the same measure for `CCCCN(C(=O)N[C@@H](CSCC(C)C)C(=O)O)C(=O)c1cccc(C#Cc2ccccc2)c1` [(130)]: 39 µM.
As for `CC(C)CSC[C@H](NC(=O)N(CC(C)C)C(=O)c1cccc(C#Cc2ccccc2)c1)C(=O)O` [(131)], the IC50 turned out to be 20 µM.
`CC(C)CCN(C(=O)N[C@@H](CSCC(C)C)C(=O)O)C(=O)c1cccc(C#Cc2ccccc2)c1` [(132)] returned an IC50 of 24 µM.
As for `CSCCN(C(=O)N[C@@H](CSCC(C)C)C(=O)O)C(=O)c1cccc(C#Cc2ccccc2)c1` [(133)], the IC50 stood at 27 µM.
`CCCN(C(=O)N[C@@H](CSCC(C)C)C(=O)O)C(=O)c1cccc(C#Cc2ccc(C(C)(C)C)cc2)c1` [(149)] registered an IC50 of 107 µM. Against the preceding compound, the IC50 is about 4-fold higher.
For the compound `CCCN(C(=O)N[C@@H](CSCC(C)C)C(=O)O)C(=O)c1cccc(C#Cc2ccncc2)c1` [(150)], the “Bcl-xLΔ25 IC50 (µM)” value is “n.b.^b”.
`CCCN(C(=O)N[C@@H](CSCC(C)C)C(=O)O)C(=O)c1cccc(C#Cc2cccnc2)c1` [(151)]: the IC50 came out at 212 µM.
Compound `CCCN(C(=O)N[C@@H](CSCC(C)C)C(=O)NS(=O)(=O)c1ccc(Br)cc1)C(=O)c1cccc(C#Cc2ccccc2)c1` [(152)] yielded an IC50 of 48 µM. Against the preceding compound, the IC50 is about 4.4-fold lower.
`CCCN(C(=O)N[C@@H](CSCC(C)C)C(=O)NS(=O)(=O)c1cccc(Br)c1)C(=O)c1cccc(C#Cc2ccccc2)c1` [(153)] registered an IC50 of 40 µM.
`CCCN(C(=O)N[C@@H](CSCC(C)C)C(=O)NS(=O)(=O)c1ccc(-c2ccccc2)cc1)C(=O)c1cccc(C#Cc2ccccc2)c1` [(154)] yielded an IC50 of 42 µM.
As for `CCCN(C(=O)N[C@@H](CSCC(C)C)C(=O)NS(=O)(=O)c1ccc(NCCSc2ccccc2)c([N+](=O)[O-])c1)C(=O)c1cccc(C#Cc2ccccc2)c1` [(156)], the IC50 worked out at 10 µM.

The next experiment deals with T2, Bcl-wΔ29 (Homo sapiens, UniProt Q92843).
T2 construct: GST tagged Bclw ΔC29 protein
T2 sequence (Q92843 1-164 limits assumed): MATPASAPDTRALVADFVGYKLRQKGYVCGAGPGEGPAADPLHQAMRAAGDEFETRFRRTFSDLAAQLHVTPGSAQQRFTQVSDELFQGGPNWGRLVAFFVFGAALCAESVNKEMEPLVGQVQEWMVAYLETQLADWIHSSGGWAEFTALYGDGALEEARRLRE
Briefly: Alphascreen GST competition binding assay, benzoylurea compounds vs Biotinylated Bim BH3-26 peptide on GST tagged Bclw ΔC29 protein. The following applies: GST tagged Bclw ΔC29 protein 0.05 nM, Biotinylated Bim BH3-26 peptide 3.0 nM, 4 hours at room temperature; values marked a tested in a separate experiment; n.b. = not binding in the assay conditions. A general note: Bead proximity is the source of the signal in Alpha formats.
`CCC(C)N(C(=O)N[C@@H](CSCc1ccccc1)C(=O)O)C(=O)c1cccc(-c2ccccc2)c1` (mixture of isomers) [(4)] returned an IC50 of 149 µM.
Regarding `CCCN(C(=O)N[C@@H](CSCc1ccccc1)C(=O)O)C(=O)c1cccc(-c2ccccc2)c1` [(1)], the IC50 stood at 38 µM.
On the same count and under the same terms, for `CCCCN(C(=O)N[C@@H](CSCc1ccccc1)C(=O)O)C(=O)c1cccc(-c2ccccc2)c1` [(2)] the value was 57 µM.
`CC(C)CN(C(=O)N[C@@H](CSCc1ccccc1)C(=O)O)C(=O)c1cccc(-c2ccccc2)c1` [(3)] had an IC50 of 65 µM.
The compound `CC(C)N(C(=O)N[C@@H](CSCc1ccccc1)C(=O)O)C(=O)c1cccc(-c2ccccc2)c1` [(5)] returned an IC50 of 266 µM.
As for `O=C(O)[C@H](CSCc1ccccc1)NC(=O)N(C(=O)c1cccc(-c2ccccc2)c1)C1CCCCC1` [(6)], the IC50 was 73 µM.
The compound `O=C(O)[C@H](CSCc1ccccc1)NC(=O)N(CC1CCCCC1)C(=O)c1cccc(-c2ccccc2)c1` [(7)] registered a 50% inhibitory concentration (IC50) of 37 µM.
The compound `CSCCN(C(=O)N[C@@H](CSCc1ccccc1)C(=O)O)C(=O)c1ccc(-c2ccccc2)cc1` [(45)] yielded an IC50 of 69 µM.
For `CCCN(C(=O)N[C@@H](CSCc1ccccc1)C(=O)O)C(=O)c1cccc(-c2ccccc2Cl)c1` [(46)], the IC50 was found to be 38 µM.
With `CCCN(C(=O)N[C@@H](CSCc1ccccc1)C(=O)O)C(=O)c1cccc(-c2ccc(C)cc2)c1` [(47)], the IC50 was 62 µM.
With `CCCN(C(=O)N[C@@H](CSCc1ccccc1)C(=O)O)C(=O)c1ccc(-c2ccccc2Cl)cc1` [(48)], the IC50 was found to be 68 µM.
In turn, `CCCN(C(=O)N[C@@H](CSCc1ccccc1)C(=O)O)C(=O)c1cccc(-c2ccc(OC)cc2)c1` [(52)] came in with an IC50 of 96 µM. This IC50 and that of the compound before are within 1.5-fold of each other.
As to `CCCN(C(=O)N[C@@H](CSCc1ccccc1)C(=O)O)C(=O)c1cccc(-c2ccc(Cl)c(Cl)c2)c1` [(58)], the IC50 was 48 µM.
On to `CCCN(C(=O)N[C@@H](CSCc1ccccc1)C(=O)O)C(=O)c1cccc(-c2ccc(Cl)cc2)c1` [(59)], for which the IC50 was 68 µM.
As to `CCCN(C(=O)N[C@@H](CSCc1ccccc1)C(=O)O)C(=O)c1ccc(-c2ccc(C)cc2)cc1` [(62)], the IC50 is 48 µM.
The same measure, in the same setting: for `CCCN(C(=O)N[C@@H](CSCc1ccccc1)C(=O)O)C(=O)c1ccc(-c2ccc(OC)cc2)cc1` [(63)] the value was 136 µM.
For the compound `CCCN(C(=O)N[C@@H](CSCc1ccccc1)C(=O)O)C(=O)c1ccc(-c2ccc(Cl)cc2)cc1` [(64)], the IC50 came to 74 µM.
The same measure, in the same setting: the same measure for `CCCN(C(=O)N[C@@H](CSCc1ccccc1)C(=O)O)C(=O)c1ccc(-c2ccc(Cl)c(Cl)c2)cc1` [(65)]: 60 µM.
With `CCCN(C(=O)N[C@@H](CSCc1ccccc1)C(=O)O)C(=O)c1cccc(C#Cc2ccccc2)c1` [(66)], the concentration for half-maximal inhibition (IC50) turned out to be 58 µM. The IC50 values of the last two compounds are within 1.5-fold of each other.
As for `CCCN(C(=O)N[C@@H](CSCc1ccccc1)C(=O)O)C(=O)c1ccc(C#Cc2ccccc2)cc1` [(67)], the 50% inhibitory concentration (IC50) came to 92 µM.
Consider `CCN(C(=O)N[C@@H](CSCc1ccccc1)C(=O)O)C(=O)c1cccc(-c2ccccc2)c1` [(70)], for which the IC50 is 153 µM.
Turning to `CCCN(C(=O)NCC(=O)O)C(=O)c1cccc(-c2ccccc2)c1` [(71)], the “Bcl-wΔ29 IC50 (µM)” value is “n.b.^b”.
For the compound `O=C([C@H](CSCc1ccccc1)NC(=O)N(Cc1cccc2ccccc12)C(=O)c1cccc(-c2ccc(F)cc2)c1)N1CCOCC1` [(72)], the “Bcl-wΔ29 IC50 (µM)” value is reported as “n.b.^b”.
The compound `CCCN(C(=O)N[C@@H](CSCc1ccccc1)C(=O)O)C(=O)c1cc(CC(=O)O)cc(-c2ccccc2)c1` [(81)] yielded a half-maximal inhibitory concentration (IC50) of 144 µM.
